{"source": "patent US10806140B2", "about": "“Antimicrobial compound” (Physical Sciences, Inc., priority 2018, dated 2020)", "key": {"E. Coli": {"test_system": "E. Coli", "experiment": "JIS Z 2801 antimicrobial test of metallic coupons, E. Coli", "type": "cell-based", "conditions": "clear anodized aluminum coupon, front side; vs control without dendrimer; 24 hours", "method": "The AM testing was performed using the standardized JIS Z 2801 method against the Gram negative, E. Coli bacteria. A summary of the procedure is presented below:\nThe test microorganism is prepared, usually by growth in a liquid culture medium. • The suspension of test microorganism is standardized by dilution in a nutritive broth (this affords microorganisms the opportunity to proliferate during the test). • Control and test surfaces are inoculated with microorganisms, and then the microbial inoculum is covered with a thin, sterile film. Covering the inoculum spreads it, prevents it from evaporating, and ensures close contact with the antimicrobial surface. • Microbial concentrations are determined at “time zero” by elution followed by dilution and plating to agar. • A control is run to verify that the neutralization/elution method effectively neutralizes the antimicrobial agent in the antimicrobial surface being tested. • Inoculated, covered control and antimicrobial test surfaces are allowed to incubate undisturbed in a humid environment for 24 hours, usually at body temperature. • After incubation, microbial concentrations are determined. Reduction of microorganisms relative to the control surface is calculated."}, "MRSA": {"test_system": "MRSA", "experiment": "Additional AM testing of derivatized cotton, MRSA", "type": "cell-based", "conditions": "derivatized cotton fabrics"}, "S. aureus": {"test_system": "S. aureus", "experiment": "AATCC 100 antimicrobial test of derivatized fabrics, S. aureus", "type": "cell-based", "conditions": "for % Kill at 4 hours / % Kill at 24 hours: dendrimer attached to cotton fabric, S. aureus; for % kill at 4 hrs.: direct functionalization, ~1×10^6 CFU/mL; for % Kill of laundered fabric (4 hrs.): derivatized cotton", "method": "The antimicrobial testing during this effort was performed. […] The mixture is incubated for selected times. The mixture is then diluted with PBS and a bacterial culture (agar plate) is performed. The colony forming units (CFUs) are determined and the results are expressed as kill efficiency (percentage kill relative to the initial concentration)."}, "[1]": {"test_system": "skin of New Zealand White rabbits", "experiment": "Direct Primary Skin Irritation Test - ISO", "type": "in vivo", "method": "Cotton fabrics derivatized with QAC-I dendrimer was evaluated at Toxikon for skin irritation using a GLP protocol based on “Direct Primary Skin Irritation Test—ISO”. The test article was evaluated for its potential to produce primary skin irritation after a single topical minimum 4 hour application to the skin of New Zealand White rabbits. Test sites were scored for erythema and/or edema."}, "MS2": {"test_system": "MS2", "conditions": "derivatized cotton fabrics", "text": "Cotton fabrics derivatized with imidazolium dendrimer were further evaluated for the AM efficacy against other pathogens."}, "C. Albicans": {"test_system": "C. Albicans", "experiment": "Broad spectrum AM testing of derivatized cotton, C. Albicans", "type": "cell-based", "conditions": "derivatized cotton fabrics", "method": "(§1) The antimicrobial testing during this effort was performed. The evaluation of the AM efficacy has been performed using a standard method, based on the AATCC 100 protocol.\n(§2) The experimental procedure starts with 1 mL of a bacterial culture (S. aureus representative for Gram positive bacteria or K. pneumoniae representative for Gram negative bacteria) which is inoculated to 2-3 fabric swatches (full absorption). The mixture is incubated for selected times. The mixture is then diluted with PBS and a bacterial culture (agar plate) is performed. The colony forming units (CFUs) are determined and the results are expressed as kill efficiency (percentage kill relative to the initial concentration).\n(§3) The QAC-I derivatized cotton fabrics were evaluated against several strains of Gram positive and Gram negative bacteria and one fungus (C. Albicans)."}, "S. Epidermisis": {"test_system": "S. Epidermisis", "experiment": "Broad spectrum AM testing of derivatized cotton, S. Epidermisis", "type": "cell-based", "conditions": "derivatized cotton fabrics", "method": "as §1, §2, §3"}, "[2]": {"test_system": "C. Difficile (vegetative)", "experiment": "Additional AM testing of derivatized cotton, C. Difficile vegetative cells", "type": "cell-based", "conditions": "derivatized cotton fabrics"}, "K. pneumoniae": {"test_system": "K. pneumoniae", "experiment": "AATCC 100 antimicrobial test of fabrics, K. pneumoniae", "type": "cell-based", "conditions": "for AM efficacy against K. Pneumoniae (FIG. 37): derivatized cotton swatches", "method": "as §1, §2\nThe silver fabrics are considered to be the state-of the art in the realm of AM textiles. Two silver-based consumer products (cotton fabrics) were selected for evaluation of their AM properties compared to those of QAC-I derivatized cotton. The first material comprised a silver-shirt which contained silver nanoparticles. The second material was a silver-towel which contained a permanent coating of silver ions. Swatches of both products were generated and the antimicrobial efficacy was tested using the AATCC 100 protocol (K. Pneumoniae at 4, 24 and 48 hrs. time points)."}, "C. Difficile (spores)": {"test_system": "C. Difficile (spores)", "experiment": "Additional AM testing of derivatized cotton, C. Difficile spores", "type": "cell-based", "conditions": "derivatized cotton fabrics"}}}
{"smiles": "CCCCCCCCCCn1cc[n+](CCNC(=O)NCCCNC(=O)CCN(CCCNC(=O)CCN(CCC(=O)NCCCN(CCC(=O)NCCCNC(=O)NCC[n+]2ccn(CCCCCCCCCC)c2C)CCC(=O)NCCCNC(=O)NCC[n+]2ccn(CCCCCCCCCC)c2C)CCc2ccc(NC(=O)CP(=O)(O)O)cc2)CCC(=O)NCCCNC(=O)NCC[n+]2ccn(CCCCCCCCCC)c2C)c1C.[Cl-].[Cl-].[Cl-].[Cl-]", "note": "[AM compound (1)]", "values": [{"measurement": "log reduction of the inoculum", "setting": "E. Coli", "value": "> 6", "unit": "log"}, {"measurement": "reduction of the inoculum (%)", "setting": "E. Coli", "value": "> 99.9999", "unit": "%"}]}
{"smiles": "CCCCCCCCCCn1cc[n+](CCNC(=O)NCCCNC(=O)CCN(CCCNC(=O)CCN(CCC(=O)NCCCN(CCC(=O)NCCCNC(=O)NCC[n+]2ccn(CCCCCCCCCC)c2C)CCC(=O)NCCCNC(=O)NCC[n+]2ccn(CCCCCCCCCC)c2C)CCc2ccc(Nc3nc(Cl)nc(Cl)n3)cc2)CCC(=O)NCCCNC(=O)NCC[n+]2ccn(CCCCCCCCCC)c2C)c1C.[Cl-].[Cl-].[Cl-].[Cl-]", "note": "[QAC-I]", "values": [{"measurement": "% Reduction", "setting": "MRSA", "value": 99.80, "unit": "%"}, {"measurement": "% Kill at 4 hours", "setting": "S. aureus", "value": ">99", "unit": "%"}, {"measurement": "% Kill at 24 hours", "setting": "S. aureus", "value": ">99", "unit": "%"}, {"measurement": "% kill at 4 hrs.", "setting": "S. aureus; derivatized NYCO fabric", "value": "> 99", "unit": "%"}, {"measurement": "AM Efficacy (max.)", "setting": "S. aureus; derivatized cotton fabrics, S. Aureus", "value": ">99.999", "unit": "%"}, {"measurement": "% Kill of laundered fabric (4 hrs.)", "setting": "S. aureus; reverse protocol, laundering detergent None, S. Aureus, % kill relative to final amount of bacteria", "value": ">99.99", "unit": "%"}, {"measurement": "% Kill of laundered fabric (4 hrs.)", "setting": "S. aureus; 1 accelerated cycle 45 minutes at 49° C., Tide 0.23% w/v, S. Aureus", "value": 24, "unit": "%"}, {"measurement": "% Kill of laundered fabric (4 hrs.)", "setting": "S. aureus; 1 accelerated cycle 45 minutes at 49° C., Tween-20 0.23% w/v, S. Aureus", "value": ">99.99", "unit": "%"}, {"measurement": "% kill at 4 hrs.", "setting": "S. aureus; derivatized polyester fabric", "value": "> 99", "unit": "%"}, {"measurement": "Skin irritation classification", "setting": "[1]; criteria of the protocol", "value": "negligible irritant"}, {"measurement": "Edema score", "setting": "[1]; test sites, 24 Hours, Site 1", "value": "0/0"}, {"measurement": "Erythema score", "setting": "[1]; test sites, 24 Hours, Site 1", "value": "0/0"}, {"measurement": "Edema score", "setting": "[1]; test sites, 24 Hours, Site 2", "value": "0/0"}, {"measurement": "Erythema score", "setting": "[1]; test sites, 24 Hours, Site 2", "value": "0/0"}, {"measurement": "Edema score", "setting": "[1]; test sites, 48 Hours, Site 1", "value": "0/0"}, {"measurement": "Erythema score", "setting": "[1]; test sites, 48 Hours, Site 1", "value": "0/0"}, {"measurement": "Edema score", "setting": "[1]; test sites, 48 Hours, Site 2", "value": "0/0"}, {"measurement": "Erythema score", "setting": "[1]; test sites, 48 Hours, Site 2", "value": "0/0"}, {"measurement": "Edema score", "setting": "[1]; test sites, 60 Minutes, Site 1", "value": "0/0"}, {"measurement": "Erythema score", "setting": "[1]; test sites, 60 Minutes, Site 1", "value": "0/0"}, {"measurement": "Edema score", "setting": "[1]; test sites, 60 Minutes, Site 2", "value": "0/0"}, {"measurement": "Erythema score", "setting": "[1]; test sites, 60 Minutes, Site 2", "value": "0/0"}, {"measurement": "Edema score", "setting": "[1]; test sites, 72 Hours, Site 1", "value": "0/0"}, {"measurement": "Erythema score", "setting": "[1]; test sites, 72 Hours, Site 1", "value": "0/0"}, {"measurement": "Edema score", "setting": "[1]; test sites, 72 Hours, Site 2", "value": "0/0"}, {"measurement": "Erythema score", "setting": "[1]; test sites, 72 Hours, Site 2", "value": "0/0"}, {"measurement": "Total (Erythema + Edema Scores)/(2 Test Sites × 3 Observation Points)", "setting": "[1]; test sites, per animal, 60 minute scores not included", "value": 0.0}, {"measurement": "% Reduction", "setting": "MS2", "value": 99.95, "unit": "%"}, {"measurement": "AM Efficacy (max.)", "setting": "C. Albicans", "value": ">99.99", "unit": "%"}, {"measurement": "AM Efficacy (max.)", "setting": "S. Epidermisis", "value": ">99.99", "unit": "%"}, {"measurement": "% Reduction", "setting": "[2]", "value": 99.20, "unit": "%"}, {"measurement": "AM Efficacy (max.)", "setting": "K. pneumoniae; derivatized cotton fabrics, K. Pneumoniae", "value": ">99.99", "unit": "%"}, {"measurement": "AM efficacy against K. Pneumoniae (FIG. 37)", "setting": "K. pneumoniae", "value": "very high efficacy"}, {"measurement": "% Reduction", "setting": "C. Difficile (spores)", "value": 99.82, "unit": "%"}]}
{"smiles": "CCCCCCCCCCCCCCCCCC[N+](C)(C)CCNC(=O)NCCCNC(=O)CCN(CCCNC(=O)CCN(CCC(=O)NCCCN(CCC(=O)NCCCNC(=O)NCC[N+](C)(C)CCCCCCCCCCCCCCCCCC)CCC(=O)NCCCNC(=O)NCC[N+](C)(C)CCCCCCCCCCCCCCCCCC)CCc1ccc(Nc2nc(Cl)nc(Cl)n2)cc1)CCC(=O)NCCCNC(=O)NCC[N+](C)(C)CCCCCCCCCCCCCCCCCC.[Cl-].[Cl-].[Cl-].[Cl-]", "note": "[QAC-C18]", "values": [{"measurement": "% Kill at 4 hours", "setting": "S. aureus", "value": 78, "unit": "%"}, {"measurement": "% Kill at 24 hours", "setting": "S. aureus", "value": 11, "unit": "%"}]}
{"smiles": "CCCCCCCCCCCC[N+](C)(C)CCNC(=O)NCCCNC(=O)CCN(CCCNC(=O)CCN(CCC(=O)NCCCN(CCC(=O)NCCCNC(=O)NCC[N+](C)(C)CCCCCCCCCCCC)CCC(=O)NCCCNC(=O)NCC[N+](C)(C)CCCCCCCCCCCC)CCc1ccc(Nc2nc(Cl)nc(Cl)n2)cc1)CCC(=O)NCCCNC(=O)NCC[N+](C)(C)CCCCCCCCCCCC.[Cl-].[Cl-].[Cl-].[Cl-]", "note": "[QAC-4]", "values": [{"measurement": "% Kill at 4 hours", "setting": "S. aureus", "value": ">99", "unit": "%"}, {"measurement": "% Kill at 24 hours", "setting": "S. aureus", "value": 62, "unit": "%"}, {"measurement": "AM efficacy against K. Pneumoniae (FIG. 37)", "setting": "K. pneumoniae", "value": "very high efficacy"}]}
{"smiles": "CCCCCCCCCCCC[N+](C)(CCCCCCCCCCCC)CCNC(=O)NCCCNC(=O)CCN(CCCNC(=O)CCN(CCC(=O)NCCCN(CCC(=O)NCCCNC(=O)NCC[N+](C)(CCCCCCCCCCCC)CCCCCCCCCCCC)CCC(=O)NCCCNC(=O)NCC[N+](C)(CCCCCCCCCCCC)CCCCCCCCCCCC)CCc1ccc(Nc2nc(Cl)nc(Cl)n2)cc1)CCC(=O)NCCCNC(=O)NCC[N+](C)(CCCCCCCCCCCC)CCCCCCCCCCCC.[Cl-].[Cl-].[Cl-].[Cl-]", "note": "[QAC-D]", "values": [{"measurement": "% Kill at 4 hours", "setting": "S. aureus", "value": "−38", "unit": "%"}]}
